Measured values from patent US11345702B1 (Myoforte Therapeutics, Inc., priority 2020, dated 2022).

Target: 15-PGDH/HPGD (Homo sapiens (Human), UniProt P15428)
Experiment: hPGDH inhibitor screening biochemical assay
Conditions: read-out: hPGDH: Average IC50
Procedure: A hydroxyprostaglandin dehydrogenase inhibition screening biochemical assay can be performed to assess the synthesized inhibitors provided herein. Provided herein is an exemplary biochemical assay for hPGDH inhibitor screening.
The in vitro biochemical assay can be performed in white, 384 plates in total 20 μl reaction volume consisting of 10 nM of 15-PGDH/HPGD (R&D System #5660-DH), 15 μM Prostaglandin E2 (Sigma, Cat #P5640-10MG) and 0.25 mM (3-Nicotinamide adenine dinucleotide sodium salt (Sigma, Cat #N0632-5G) made in reaction buffer (50 mM Tris-HCl, pH 7.5, 0.01% Tween 20) at 10-point dose response curve for test/tool compounds. Briefly, 5 μl (4×) of compounds solution and 5 μl (final concentration, 10 nM) of enzyme solution is added to white 384 well plates and incubated for 10 mins at 37° C. 5 μl (4×) of Prostaglandin E2 and 5 μl (4×) of β-Nicotinamide adenine dinucleotide sodium salt is added to the wells and incubated for 10 mins at room temperature. Fluorescence is recorded at ex/em=340 nm/485 nm. The percentage (%) inhibition of enzyme activity was determined relative to positive control (1% DMSO) and IC50 was calculated using GraphPad prism software (four parameter-variable slope equation).

15-PGDH/HPGD, sequence (P15428 whole entry): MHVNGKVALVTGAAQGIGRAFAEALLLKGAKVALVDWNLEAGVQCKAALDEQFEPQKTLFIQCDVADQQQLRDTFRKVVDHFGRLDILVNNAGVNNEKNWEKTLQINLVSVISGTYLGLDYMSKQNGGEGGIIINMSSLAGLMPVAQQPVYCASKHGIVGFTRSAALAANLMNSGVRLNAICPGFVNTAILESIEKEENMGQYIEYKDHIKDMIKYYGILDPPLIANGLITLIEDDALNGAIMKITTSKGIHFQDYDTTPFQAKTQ

Row | IC50 [nM] | Structure (SMILES)
1 | < 100 | COc1ccc(-n2ccc3c(C#N)c(C(=O)N4CCCCC4)cnc32)cc1 [MF-DH-289, 1-(4-methoxyphenyl)-5-(piperidine-1-carbonyl)-1H-pyrrolo[2,3-b]pyridine-4-carbonitrile]
2 | < 100 | O=C(c1cnc2c(ccn2-c2ccccn2)c1)N1CCCCC1 [MF-PGDH-067]
3 | < 100 | NC(=O)c1ccc(-n2ccc3cc(C(=O)N4CCCCC4)cnc32)cc1 [MF-DH-299]
4 | < 100 | CCOC(=O)Cc1nc2cc(C(=O)N3CCCCC3)ccc2n1-c1cccc(Cl)c1 [MF-PGDH-030, ethyl 2-(1-(3-chlorophenyl)-5-(piperidine-1-carbonyl)-1H-benzo[d]imidazol-2-yl)acetate]
5 | 100 to 1000 | O=C(Nc1ccc(C(=O)N2CCCCC2)cc1)c1ccccc1Cl [MF-PGDH-088]
6 | < 100 | O=C(NC1CNC1)c1ccc(-n2ccc3cc(C(=O)N4CCC(F)(F)CC4)cnc32)cc1 [MF-DH-420]
7 | < 100 | CCOC(=O)c1nc2cc(C(=O)N3CCCCC3)ccc2n1-c1cccc(Cl)c1 [MF-PGDH-027, ethyl 1-(3-chlorophenyl)-5-(piperidine-1-carbonyl)-1H-benzo[d]imidazole-2-carboxylate]
8 | < 100 | O=C(c1ccc2c(c1)ncn2-c1cccc(Cl)c1)N1CC2CCCC2C1 (stereo not drawn) [MF-PGDH-015]
9 | < 100 | O=C(c1cnc2c(ccn2-c2cnccn2)c1)N1CCC(F)CC1 [MF-DH-123]
10 | ≥ 1000 | Cc1ccc(S(=O)(=O)n2ccc3cc(C(=O)N4CCCCC4)cnc32)cc1 [MF-DH-312, piperidin-1-yl(1-tosyl-1H-pyrrolo[2,3-b]pyridin-5-yl)methanone]
11 | 100 to 1000 | O=C(c1ccc(C[S+]([O-])c2ccccc2Cl)cc1)N1CCCCC1 (stereo not drawn) [MF-PGDH-045, (4-(((2-chlorophenyl)sulfinyl)methyl)phenyl)(piperidin-1-yl)methanone]
12 | < 100 | O=C(NC1CCNCC1)c1ccc(-n2ccc3cc(C(=O)N4CCC(F)(F)CC4)cnc32)cc1 [MF-DH-419]
13 | < 100 | CC(C)(O)CCc1cc2cc(C(=O)N3CCC(F)(F)CC3)cnc2n1-c1ccc(C#N)cc1 [MF-DH-444, 4-(5-(4,4-difluoropiperidine-1-carbonyl)-2-(3-hydroxy-3-methylbutyl)-1H-pyrrolo[2,3-b]pyridin-1-yl)benzonitrile]
14 | < 100 | CC(C)(C(N)=O)c1cncc(-n2ccc3cc(C(=O)N4CCC(F)(F)CC4)cnc32)c1 [MF-DH-487, 2-(5-(5-(4,4-difluoropiperidine-1-carbonyl)-1H-pyrrolo[2,3-b]pyridin-1-yl)pyridin-3-yl)-2-methylpropanamide]
15 | < 100 | O=C(c1cnc2c(ccn2-c2ccc(O)nc2)c1)N1CCCCC1 [MF-DH-321]
16 | < 100 | O=C(c1cnc2c(ccn2-c2ccc(-c3noc(=O)[nH]3)nc2)c1)N1CCC(F)(F)CC1 [MF-DH-456, 3-(5-(5-(4,4-difluoropiperidine-1-carbonyl)-1H-pyrrolo[2,3-b]pyridin-1-yl)pyridin-2-yl)-1,2,4-oxadiazol-5(4H)-one]
17 | < 100 | COc1ccc(-n2ccc3cc(C(=O)N4C[C@H](C)C[C@H](C)C4)cnc32)cc1 [MF-DH-329, ((3R,5S)-3,5-dimethylpiperidin-1-yl)(1-(4-methoxyphenyl)-1H-pyrrolo[2,3-b]pyridin-5-yl)methanone]
18 | ≥ 1000 | Cc1nc2c(ccn2-c2cnccn2)cc1C(=O)N1CCC(F)CC1 [MF-DH-148]
19 | < 100 | Cn1cc(-n2ccc3cc(C(=O)N4CCC(F)CC4)cnc32)cn1 [MF-DH-139]
20 | < 100 | Nc1cncc(-n2ccc3cc(C(=O)N4CCCCC4)cnc32)c1 [MF-DH-322]
21 | < 100 | O=C(c1ccc(COc2ccccc2-c2cncs2)cc1)N1CCCCC1 [MF-PGDH-097]
22 | < 100 | CCNC(=O)c1ccc(-n2ccc3cc(C(=O)N4CCC(F)(F)CC4)cnc32)cc1 [MF-DH-418]
23 | < 100 | N#Cc1ccc(-n2ccc3cc(C(=O)N4CCCCC4)cnc32)cc1 [MF-DH-298]
24 | < 100 | COc1ccccc1C(=O)Nc1ccc(C(=O)N2CCCCC2)cc1 [MF-PGDH-041]

Row | IC50 [nM] | Structure (SMILES)
25 | 100 to 1000 | O=C(c1ccc2c(c1)ncn2-c1cccc(Cl)c1)N1CCC(O)CC1 [MF-PGDH-052]
26 | < 100 | COc1ccc(-n2ccc3cc(C(=O)N4CCCCC4)cnc32)cn1 [MF-DH-323]
27 | 100 to 1000 | COCCc1nc2cc(C(=O)N3CCC(F)CC3)ccc2n1-c1ccc(OC)cc1 [MF-DH-186]
28 | < 100 | O=C(c1cnc2c(ccn2-c2ccc(CO)cc2)c1)N1CCC(F)CC1 [MF-DH-347]
29 | < 100 | COc1ccc(-n2ccc3cc(C(=O)N4CCCCC4)cnc32)cc1 [MF-DH-297]
30 | < 100 | Nc1cc(-n2ccc3cc(C(=O)N4CCCCC4)cnc32)ccn1 [MF-DH-317]
31 | < 100 | N#Cc1ccc(-n2ccc3cc(C(=O)N4CC[C@H](F)C4)cnc32)cc1 (single isomer, unassigned) [MF-DH-574]
32 | 100 to 1000 | O=C(c1ccc2c(c1)ncn2-c1cccc(Cl)c1)N1CCC(F)C1 (stereo not drawn) [MF-PGDH-048]
33 | < 100 | O=C(c1cnc2c(ccn2-c2cccc(CO)c2)c1)N1CCC(F)CC1 [MF-DH-348]
34 | < 100 | C[C@H]1CCCN(C(=O)c2cnc3c(ccn3-c3ccc(C(=O)O)cc3)c2)C1 [MF-DH-562, (S)-4-(5-(3-methylpiperidine-1-carbonyl)-1H-pyrrolo[2,3-b]pyridin-1-yl)benzoic acid]
35 | < 100 | CC(C)(CC(=O)O)NC(=O)c1ccc(-n2ccc3cc(C(=O)N4CCC(F)(F)CC4)cnc32)cc1 [MF-DH-431]
36 | < 100 | NS(=O)(=O)c1cccc(-n2ccc3cc(C(=O)N4CCC(F)(F)CC4)cnc32)c1 [MF-DH-495]
37 | 100 to 1000 | COc1cccc(-n2nc(Cl)c3cc(C(=O)N4CCCCC4)ccc32)c1 [MF-DH-272]
38 | < 100 | O=C(c1cnc2c(ccn2-c2cnccn2)c1)N1CCCCC1 [MF-PGDH-071]
39 | 100 to 1000 | COc1ccc(-c2cn(C)c3cc(C(=O)N4CCC(F)CC4)cnc23)cc1 [MF-DH-181, (4-fluoropiperidin-1-yl)(3-(4-methoxyphenyl)-1-methyl-1H-pyrrolo[3,2-b]pyridin-6-yl)methanone]
40 | < 100 | O=C(c1ccc(COc2ccccc2Br)cc1)N1CCCCC1 [MF-PGDH-036]
41 | < 100 | NC(=O)c1cccc(-n2ccc3cc(C(=O)N4CCC(F)CC4)cnc32)c1 [MF-DH-345]
42 | < 100 | CS(=O)(=O)c1ccc(-n2ccc3cc(C(=O)N4CCCCC4)cnc32)cc1 [MF-DH-310]
43 | < 100 | CC(C)(C#N)c1cncc(-n2ccc3cc(C(=O)N4CCC(F)(F)CC4)cnc32)c1 [MF-DH-509, 2-(5-(5-(4,4-difluoropiperidine-1-carbonyl)-1H-pyrrolo[2,3-b]pyridin-1-yl)pyridin-3-yl)-2-methylpropanenitrile]
44 | < 100 | NC(=O)c1ccc(-n2ccc3cc(C(=O)N4CCC(F)(F)CC4)cnc32)cc1 [MF-DH-394]
45 | ≥ 1000 | COc1ccc(-n2ccc3cc(C(=O)N4CC(c5ccccc5)C4)cnc32)cc1 [MF-DH-326]
46 | < 100 | O=C(c1ccc2c(c1)ncn2-c1cccc(Cl)c1)N1CCC(Cl)C1 (stereo not drawn) [MF-PGDH-049]
47 | 100 to 1000 | COc1ccc(-n2c(CCC(F)(F)F)nc3cc(C(=O)N4CCC(F)CC4)cnc32)cc1 [MF-DH-195]
48 | < 100 | CS(=O)(=O)NCCNC(=O)c1cccc(-n2ccc3cc(C(=O)N4CCC(F)(F)CC4)cnc32)c1 [MF-DH-480, 3-(5-(4,4-difluoropiperidine-1-carbonyl)-1H-pyrrolo[2,3-b]pyridin-1-yl)-N-(2-(methylsulfonamido)ethyl)benzamide]
